{
  "source": "paper PMC7211195",
  "about": "(Investigational New Drugs, 2019)",
  "test": "Lapatinib pharmacokinetics and uptake in rat brain tissue (BT);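 as to BT corr (BT homogenate corrected), single rat: brain concentration corrected for residual brain blood by the Fridén method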;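 as to BT corr (BT homogenate), single rat: brain concentration corrected for residual brain blood by the Fridén method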",
  "assay_type": "in vivo, rats",
  "procedure": "This study was conducted on rats, which are a promising model to predict P-gp-based drug-drug interactions at the human BBB [15]. The animals were allowed to acclimate for one week before the beginning of the experiments. Adult male Wistar-strain rats (weight 470–525 g) were used in the study. The animals were maintained under standard breeding conditions with a 12/12 h light-dark cycle (lights on at 6.00 a.m., lights off at 6.00 p.m.) at constant room temperature (23 ± 2 °C), relative humidity (55 ± 10%) and ad libitum access to food and water. The experimental protocol for this study was reviewed and approved by the Local Ethics Committee. To obtain consistent data, the study was based on the required minimum number of animals and observation time. […] Three rats were used at each time point (n = 3). In total, the research was conducted on 66 animals (n = 33 in the experimental group and n = 33 in the control group).\nElacridar was freshly dissolved in a vehicle at an initial concentration of 20 mg/mL. […] A volume of 80 μL of blood was collected from each rat by cutting off a piece of its tail. The blood samples were collected into heparinized test tubes at the following time points: […], and they were immediately centrifuged at 2880 g for 10 min at 4 °C. The anaesthetized rats (anaesthetized by intramuscular administration of 50 mg/kg ketamine and 10 mg/kg xylazine) were prepared for cisterna magna puncture. The hair over the puncture was removed and the skin was disinfected with alcohol. The animals were placed in a recumbent position with an elevated rear part of the body. The animals’ heads were slightly flexed and immobilized with the operator’s left hand. The space between the occiput rostrally and the atlas (C1) of the spinal column caudally was gently palpated with the left thumb. A 0.7 × 20 G needle with polyethylene tubing (Terumo Poland, Warsaw, Poland) was gently inserted at an approximate angle of 80–90° through the skin with the operator’s right hand into the midsagittal region. The moment that dura mater perforation was perceptible, a small amount of CSF was found in the needle tubing. To sample additional CSF, a 1 mL insulin syringe (Becton Dickinson, Warsaw, Poland) was used to collect 80–120 μL of CSF by very gentle aspiration. Only clear CSF was collected for further analysis. […] The animals’ brains were immediately dissected, washed in 0.9% NaCl and divided along the longitudinal axis. One of the brain hemispheres was again rinsed three times with 5 mL of 0.9% NaCl, weighed and homogenized with 0.9% NaCl (4 mL per 1 g of BT) in an Ultra-Turrax homogenizer (Witko, Łódź, Poland). The homogenate was then centrifuged at 4500 g for 10 min. All samples of the rat BP, CSF, and BT homogenate supernatant were stored at −80 °C until analysis.\nThe chromatographic analysis was conducted using a 1260 Infinity system (Agilent Technologies, Santa Clara, USA) equipped with a Kinetex® C18 column (50 × 4.6 mm, 2.6 μm, Phenomenex, Torrance, USA), which was maintained at 35 °C. The mobile phase consisted of 0.1% formic acid (v/v) in water with 5 mM ammonium formate (solvent A) and acetonitrile with 10% phase A (v/v, solvent B). The analyte and internal standard (IS, erlotinib) were eluted using a gradient run of 10 min as follows: 95% A at 0–2 min; 95%–5% A at 2–4 min; 5% A at 4–5 min; 5%–95% A at 5–6 min; 95% A at 6–10 min. The flow rate and injection volume were set at 0.7 mL/min and 10 μL, respectively. The needle was washed for 30 s in a mixture of acetonitrile, methanol, isopropanol, water, and formic acid (50:20:15:15:0.25, v/v/v/v/v).",
  "key": {"[1]": {"conditions": "male, Wistar, rat, brain tissue homogenate, corrected for residual blood, po, 100 mg/kg, lapatinib p.o. 100 mg/kg alone, read-out: BT corr (BT homogenate corrected), S"}, "[2]": {"conditions": "male, Wistar, rat, brain tissue homogenate, corrected for residual blood, po, 100 mg/kg, lapatinib p.o. 100 mg/kg alone, read-out: BT corr (BT homogenate corrected), single rat"}, "[3]": {"conditions": "male, Wistar, rat, brain tissue homogenate, oral, lapatinib 100 mg/kg + elacridar, read-out: BT corr (BT homogenate), S"}, "[4]": {"conditions": "male, Wistar, rat, brain tissue homogenate, oral, lapatinib 100 mg/kg + elacridar, read-out: BT corr (BT homogenate), single rat"}},
  "note": "Values joined by “and” are separate entries in the source; they are usually repeats but may differ in a detail not shown here. Identical values can stand only once. Like-named read-outs stand apart in the source and are kept apart here.",
  "data": [
    {"smiles": "CS(=O)(=O)CCNCc1ccc(-c2ccc3ncnc(Nc4ccc(OCc5cccc(F)c5)c(Cl)c4)c3c2)o1", "note": "[lapatinib, N-{3-Chloro-4-[(3-fluorobenzyl)oxy]phenyl}-6-[5-({[2-(methylsulfonyl)ethyl]amino}methyl)-2-furyl]-4-quinazolinamine]", "values": [
      {"measurement": "BT corr (BT homogenate corrected), single rat", "setting": "lapatinib p.o. 100 mg/kg alone, 1 h, 100 mg/kg", "result": 62.82, "unit": "ng/mL"},
      {"measurement": "BT corr (BT homogenate corrected), single rat", "setting": "lapatinib p.o. 100 mg/kg alone, 1 h, listed as Lapatinib, 100 mg/kg", "result": 62.82, "unit": "ng/mL"},
      {"measurement": "BT corr (BT homogenate corrected), single rat", "setting": "lapatinib p.o. 100 mg/kg alone, 4 h, 100 mg/kg", "result": 135.24, "unit": "ng/mL"},
      {"measurement": "BT corr (BT homogenate corrected), single rat", "setting": "lapatinib p.o. 100 mg/kg alone, 4 h, listed as Lapatinib, 100 mg/kg", "result": 135.24, "unit": "ng/mL"},
      {"measurement": "BT corr (BT homogenate corrected), single rat", "setting": "lapatinib p.o. 100 mg/kg alone, 6 h, 100 mg/kg", "result": "116.18 ng/mL and 47.54 ng/mL"},
      {"measurement": "BT corr (BT homogenate corrected), single rat", "setting": "lapatinib p.o. 100 mg/kg alone, 6 h, listed as Lapatinib, 100 mg/kg", "result": "116.18 ng/mL and 47.54 ng/mL"},
      {"measurement": "BT corr (BT homogenate corrected), single rat", "setting": "lapatinib p.o. 100 mg/kg alone, 8 h, 100 mg/kg", "result": 44.94, "unit": "ng/mL"},
      {"measurement": "BT corr (BT homogenate corrected), single rat", "setting": "lapatinib p.o. 100 mg/kg alone, 8 h, listed as Lapatinib, 100 mg/kg", "result": 44.94, "unit": "ng/mL"},
      {"measurement": "BT corr (BT homogenate corrected), single rat", "setting": "lapatinib p.o. 100 mg/kg alone, 12 h, 100 mg/kg", "result": 10.91, "unit": "ng/mL"},
      {"measurement": "BT corr (BT homogenate corrected), single rat", "setting": "lapatinib p.o. 100 mg/kg alone, 12 h, listed as Lapatinib, 100 mg/kg", "result": 10.91, "unit": "ng/mL"},
      {"measurement": "Kp", "setting": "male, Wistar, rat, brain tissue (homogenate supernatant), po, 100 mg/kg, read-out: Kp (tissue-to-plasma partition coefficient, AUC0-∞-tissue/AUC0-∞-plasma)", "result": 0.036},
      {"measurement": "concentration at 4 h", "setting": "male, Wistar, rat, brain tissue homogenate, corrected for residual blood, oral, lapatinib 100 mg/kg + elacridar, 4 h, read-out: BT corr (BT homogenate), single rat", "result": 78.2, "unit": "ng/mL"},
      {"measurement": "concentration at 6 h", "setting": "male, Wistar, rat, brain tissue homogenate, corrected for residual blood, oral, lapatinib 100 mg/kg + elacridar, 6 h, read-out: BT corr (BT homogenate), single rat", "result": 87.3, "unit": "ng/mL"},
      {"measurement": "concentration at 8 h", "setting": "male, Wistar, rat, brain tissue homogenate, corrected for residual blood, oral, lapatinib 100 mg/kg + elacridar, 8 h, read-out: BT corr (BT homogenate), single rat", "result": 91.5, "unit": "ng/mL"},
      {"measurement": "concentration at 12 h", "setting": "male, Wistar, rat, brain tissue homogenate, corrected for residual blood, oral, lapatinib 100 mg/kg + elacridar, 12 h, read-out: BT corr (BT homogenate), single rat", "result": 63.6, "unit": "ng/mL"},
      {"measurement": "concentration at 24 h", "setting": "male, Wistar, rat, brain tissue homogenate, corrected for residual blood, oral, lapatinib 100 mg/kg + elacridar, 24 h, read-out: BT corr (BT homogenate), single rat", "result": 52.7, "unit": "ng/mL"},
      {"measurement": "concentration at 0.25 h", "setting": "[1]", "result": 27.9, "unit": "ng/mL"},
      {"measurement": "concentration at 0.25 h", "setting": "[2]", "result": 22.5, "unit": "ng/mL"},
      {"measurement": "concentration at 0.5 h", "setting": "[1]", "result": 31.5, "unit": "ng/mL"},
      {"measurement": "concentration at 0.5 h", "setting": "[2]", "result": 24, "unit": "ng/mL"},
      {"measurement": "concentration at 1 h", "setting": "male, Wistar, rat, brain tissue homogenate, corrected for residual blood, po, 100 mg/kg, lapatinib p.o. 100 mg/kg alone, 1 h, read-out: BT corr (BT homogenate corrected), S", "result": 55.5, "unit": "ng/mL"},
      {"measurement": "concentration at 1 h", "setting": "male, Wistar, rat, brain tissue homogenate, corrected for residual blood, po, 100 mg/kg, lapatinib p.o. 100 mg/kg alone, 1 h, read-out: BT corr (BT homogenate corrected), single rat", "result": 48.1, "unit": "ng/mL"},
      {"measurement": "concentration at 2 h", "setting": "[1]", "result": 41.4, "unit": "ng/mL"},
      {"measurement": "concentration at 2 h", "setting": "[2]", "result": 30.1, "unit": "ng/mL"},
      {"measurement": "concentration at 3 h", "setting": "[1]", "result": 111, "unit": "ng/mL"},
      {"measurement": "concentration at 3 h", "setting": "[2]", "result": 139, "unit": "ng/mL"},
      {"measurement": "concentration at 4 h", "setting": "male, Wistar, rat, brain tissue homogenate, corrected for residual blood, po, 100 mg/kg, lapatinib p.o. 100 mg/kg alone, 4 h, read-out: BT corr (BT homogenate corrected), S", "result": 115, "unit": "ng/mL"},
      {"measurement": "concentration at 4 h", "setting": "male, Wistar, rat, brain tissue homogenate, corrected for residual blood, po, 100 mg/kg, lapatinib p.o. 100 mg/kg alone, 4 h, read-out: BT corr (BT homogenate corrected), single rat", "result": 94.2, "unit": "ng/mL"},
      {"measurement": "concentration at 6 h", "setting": "male, Wistar, rat, brain tissue homogenate, corrected for residual blood, po, 100 mg/kg, lapatinib p.o. 100 mg/kg alone, 6 h, read-out: BT corr (BT homogenate corrected), S", "result": 81.9, "unit": "ng/mL"},
      {"measurement": "concentration at 8 h", "setting": "male, Wistar, rat, brain tissue homogenate, corrected for residual blood, po, 100 mg/kg, lapatinib p.o. 100 mg/kg alone, 8 h, read-out: BT corr (BT homogenate corrected), S", "result": 66.2, "unit": "ng/mL"},
      {"measurement": "concentration at 8 h", "setting": "male, Wistar, rat, brain tissue homogenate, corrected for residual blood, po, 100 mg/kg, lapatinib p.o. 100 mg/kg alone, 8 h, read-out: BT corr (BT homogenate corrected), single rat", "result": 87.5, "unit": "ng/mL"},
      {"measurement": "concentration at 12 h", "setting": "male, Wistar, rat, brain tissue homogenate, corrected for residual blood, po, 100 mg/kg, lapatinib p.o. 100 mg/kg alone, 12 h, read-out: BT corr (BT homogenate corrected), S", "result": 44.5, "unit": "ng/mL"},
      {"measurement": "concentration at 0.25 h", "setting": "[3]", "result": 33.1, "unit": "ng/mL"},
      {"measurement": "concentration at 0.25 h", "setting": "[4]", "result": 30.7, "unit": "ng/mL"},
      {"measurement": "concentration at 0.5 h", "setting": "[3]", "result": 43.6, "unit": "ng/mL"},
      {"measurement": "concentration at 0.5 h", "setting": "[4]", "result": 45.2, "unit": "ng/mL"},
      {"measurement": "concentration at 1 h", "setting": "male, Wistar, rat, brain tissue homogenate, oral, lapatinib 100 mg/kg + elacridar, 1 h, read-out: BT corr (BT homogenate), S", "result": 79.1, "unit": "ng/mL"},
      {"measurement": "concentration at 1 h", "setting": "male, Wistar, rat, brain tissue homogenate, oral, lapatinib 100 mg/kg + elacridar, 1 h, read-out: BT corr (BT homogenate), single rat", "result": 74.9, "unit": "ng/mL"}
    ]}
  ]
}
